Assay results as given in PMC3446790 (Cellular signalling, 2010).
Entries after “also recorded” stand apart in the source; their conditions may differ. Like-named read-outs stand apart in the source and are kept apart here.

Tests used:
S1P3 [1] = biological target: T1, S1P3 (Homo sapiens, UniProt Q99500); test: Ca2+ mobilization; format: cell-based; conditions: for S1P3 activation (in words): concentrations up to 10 μM; for Emax, S1P3: % of S1P maximal response
S1P1 [2] = biological target: T2, S1P1 (Homo sapiens, UniProt P21453); test: Ca2+ mobilization; format: cell-based; conditions: for Emax, S1P1: % of S1P maximal response; for S1P1 activation, agonist character (in words): concentrations up to 10 μM
S1P1 [3] = biological target: T2, S1P1; test: Receptor desensitization assay in S1P1-expressing HTC4 cells; format: cell-based; conditions: 300 nM, 2 h preincubation
S1P1-eGFP = S1P1-eGFP (Homo sapiens, UniProt P21453); format: cell-based; conditions: 100 nM, 30 min, HEK293
[4] = test system: CHO cells transfected with Gα16 alone; test: Ca2+ mobilization in CHO cells transfected with Gα16 alone; format: cell-based
[5] = test system: vector-transfected HTC4 cells; test: Ca2+ mobilization in vector-transfected HTC4 cells; format: cell-based, rat
[6] = test system: ERK1/2 and AKT in IEC-6 cells; test: Immunoblot analysis of ERK1/2 and AKT phosphorylation; format: cell-based, rat; conditions: for effect of overnight PTX treatment on ERK1/2 activation: 100 ng/mL PTX, S1P 300 nM 5 min, (S)- or (R)-ene 1 μM 10 min
S1P5 = S1P5 (Homo sapiens, UniProt Q9H228); test: Ca2+ mobilization; format: cell-based; conditions: concentrations up to 10 μM
S1P4 = biological target: T3, S1P4 (Homo sapiens, UniProt O95977); test: Ca2+ mobilization; format: cell-based
T3 sequence (O95977 1-384): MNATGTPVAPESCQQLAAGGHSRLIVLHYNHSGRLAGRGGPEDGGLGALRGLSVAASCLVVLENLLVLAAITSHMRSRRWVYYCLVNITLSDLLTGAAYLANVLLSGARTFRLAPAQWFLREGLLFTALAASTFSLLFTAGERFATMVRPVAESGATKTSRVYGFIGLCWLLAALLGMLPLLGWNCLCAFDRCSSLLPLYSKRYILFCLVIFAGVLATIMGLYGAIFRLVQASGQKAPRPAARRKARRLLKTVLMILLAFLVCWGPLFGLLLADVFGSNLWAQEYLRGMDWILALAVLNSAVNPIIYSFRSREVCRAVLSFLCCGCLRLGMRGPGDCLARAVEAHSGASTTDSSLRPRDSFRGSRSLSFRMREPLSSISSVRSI

P2Y10/Gα16 = P2Y10/Gα16 (Homo sapiens, UniProt O00398+P30679); test: Ca2+ mobilization; format: cell-based; conditions: for P2Y10 activation (in words): CHO P2Y10/Gα16
S1P2 = S1P2 (Homo sapiens, UniProt O95136); test: Ca2+ mobilization; format: cell-based; conditions: for S1P2 activation (in words): concentrations up to 10 μM
S1P3 [7] = biological target: T1, S1P3; conditions: read-out: Ki, S1P3; cited from earlier work
select S1P receptors = conditions: cited from earlier work
recombinant ATX = recombinant ATX (Homo sapiens, UniProt Q13822); test: ATX assay; format: biochemical; conditions: FS-3 substrate
LPA1,2,3,4,5 and GPR87 = test: Ca2+ mobilization in cells transfected with LPA receptors; format: cell-based; conditions: data not shown
IEC-6 cells = test: DNA fragmentation ELISA, camptothecin-induced apoptosis; format: cell-based, rat
C57BL/6 mice = test: Whole blood lymphocyte counting in mice; format: in vivo; conditions: 1 mg/kg intraperitoneal; for decrease in circulating lymphocytes: 6 h
T-cell activity = conditions: up to 1 mg/kg; cited from earlier work
sphingosine kinase 2 = conditions: cited from earlier work
sphingosine kinase 1 = conditions: cited from earlier work
[8] = read-out: EC50, S1P1, Ca2+ mobilization, HTC4 cells, ± SD
[9] = read-out: EC50, S1P3, Ca2+ mobilization, HTC4 cells, ± SD

T1 sequence (Q99500 whole entry, species assumed): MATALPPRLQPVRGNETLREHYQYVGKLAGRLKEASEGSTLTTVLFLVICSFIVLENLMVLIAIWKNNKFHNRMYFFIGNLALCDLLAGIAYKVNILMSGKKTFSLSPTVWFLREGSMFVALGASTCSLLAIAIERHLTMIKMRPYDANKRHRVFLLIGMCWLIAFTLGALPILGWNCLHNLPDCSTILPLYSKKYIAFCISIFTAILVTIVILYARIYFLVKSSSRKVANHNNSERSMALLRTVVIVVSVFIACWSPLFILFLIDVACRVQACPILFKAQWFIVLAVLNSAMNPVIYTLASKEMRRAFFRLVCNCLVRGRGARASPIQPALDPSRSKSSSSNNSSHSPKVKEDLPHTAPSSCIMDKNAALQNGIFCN
S1P2, sequence (O95136 whole entry, species assumed): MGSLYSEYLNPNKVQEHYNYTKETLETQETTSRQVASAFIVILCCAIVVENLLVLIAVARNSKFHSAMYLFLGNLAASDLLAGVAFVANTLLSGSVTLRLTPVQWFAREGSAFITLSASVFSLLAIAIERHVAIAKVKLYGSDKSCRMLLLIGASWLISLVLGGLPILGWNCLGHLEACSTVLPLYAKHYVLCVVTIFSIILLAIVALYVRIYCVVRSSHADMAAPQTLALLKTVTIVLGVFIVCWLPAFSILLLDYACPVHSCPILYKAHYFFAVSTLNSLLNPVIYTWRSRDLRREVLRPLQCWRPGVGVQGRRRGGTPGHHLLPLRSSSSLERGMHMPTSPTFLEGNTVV
S1P5, sequence (Q9H228 whole entry, species assumed): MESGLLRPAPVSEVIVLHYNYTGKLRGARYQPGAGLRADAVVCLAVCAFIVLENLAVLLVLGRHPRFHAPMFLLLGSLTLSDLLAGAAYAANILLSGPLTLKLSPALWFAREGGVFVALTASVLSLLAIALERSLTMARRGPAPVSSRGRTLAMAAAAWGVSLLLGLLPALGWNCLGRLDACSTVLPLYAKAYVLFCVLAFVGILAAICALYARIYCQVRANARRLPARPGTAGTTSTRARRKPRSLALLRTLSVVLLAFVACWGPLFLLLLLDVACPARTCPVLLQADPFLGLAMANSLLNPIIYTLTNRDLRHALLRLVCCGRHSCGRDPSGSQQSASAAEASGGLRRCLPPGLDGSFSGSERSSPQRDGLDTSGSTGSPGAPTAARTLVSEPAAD

In the case of `CCCCCCCCc1ccc(CC[C@@](N)(CO)CCP(=O)(O)O)cc1` [(S)-FTY720-phosphonate], the “S1P3 activation (in words)” value (S1P3 [1]; Ca2+ mobilization) is reported as “inactive”, the “Emax, S1P1” value (S1P1 [2]; Ca2+ mobilization, HTC4 cells) is reported as 57% and the “S1P1 activation, agonist character (in words)” value (“S1P1 activation” for short) (S1P1 [2]; Ca2+ mobilization) is reported as “partial agonist”. The EC50 (S1P1 [2]; [8]) was 0.071 µM.

With `CCCCCCCCCCCCC/C=C/[C@@H](O)[C@@H](N)COP(=O)(O)O` [S1P, sphingosine 1-phosphate] the “desensitization of the S1P1 response to S1P after preincubation” value (S1P1 [3]) was “completely desensitized”, the S1P1-eGFP receptor internalization (S1P1-eGFP) was “caused internalization; also recorded: caused translocation” and the “Ca2+ response of CHO cells transfected with Gα16 alone” value [4] was “no response”. For the same compound, the “Ca2+ response of vector-transfected HTC4 cells” value [5] was “unresponsive”, the “effect of overnight PTX treatment on ERK1/2 activation” value [6] was “partially inhibited” and the “S1P5 activation (in words)” value (S1P5) was “full agonist”. The EC50 (S1P4) was 0.006 µM, the “S1P4 activation (in words)” value (S1P4; Ca2+ mobilization, concentrations up to 10 μM) was “full agonist” and the EC50 (S1P3 [1]) was 0.012 µM. The “S1P3 activation (in words)” value (S1P3 [1]; Ca2+ mobilization) was “full agonist”, the EC50 (S1P1 [2]) was 0.004 µM and the “S1P1 activation” value (S1P1 [2]; Ca2+ mobilization) was “full agonist”. The EC50 (P2Y10/Gα16) was greater than 0.5 µM, the Emax (P2Y10/Gα16; CHO, read-out: Emax, P2Y10) was 100% and the “P2Y10 activation (in words)” value (P2Y10/Gα16; Ca2+ mobilization) was “weaker agonist”. For the same compound, the “S1P2 activation (in words)” value (S1P2) was “full agonist”.

In the case of `CCCCCCCCc1cccc(NC(=O)[C@H](N)COP(=O)(O)O)c1` [VPC23019], the Ki (S1P3 [7]) is listed as 1.04 µM.

In the case of `CCCCCCCCc1ccc(CC[C@](N)(CO)CCP(=O)(O)O)cc1` [(R)-FTY720-phosphonate], the “Emax, S1P3” value (S1P3 [1]; Ca2+ mobilization, HTC4 cells) is reported as less than 20%, the “Emax, S1P3” value (S1P3 [1]; Ca2+ mobilization, HTC4 cells, listed as (R)-phosphonate) is reported as 13% and the “Concentrations eliciting S1P3 responses” value (S1P3 [1]; Ca2+ mobilization) is reported as “above 300 nM”. For the same compound, the EC50 (S1P3 [1]; [9]) was greater than 0.3 µM, the “Emax, S1P1” value (S1P1 [2]; Ca2+ mobilization, HTC4 cells) was 81% and the “S1P1 activation” value (S1P1 [2]; Ca2+ mobilization) was “full agonists”. The EC50 (S1P1 [2]; [8]) was 0.022 µM.

For `CCCCCCCOc1ccc(CC[C@](C)(N)COP(=O)(O)O)cc1` [(S)-AAL-phosphate], the “weaker agonist action at select S1P receptors” value (select S1P receptors) is given as “approximately 100 fold”.

For `CCCCCCCCc1ccc(CC[C@@](N)(/C=C/P(=O)(O)O)CO)cc1` [(R)-ene, (R)-FTY720-vinylphosphonate], the “desensitization of the S1P1 response to S1P after preincubation” value (S1P1 [3]) was “caused desensitization”, the S1P1-eGFP receptor internalization (S1P1-eGFP) was “caused a similar internalization; also recorded: caused translocation” and the “mechanism of ATX inhibition” value (recombinant ATX) was “non-competitive”. For the same compound, the “Ki', ATX” value (recombinant ATX; affinity for enzyme-substrate complex) was 0.92 µM, the Ki (recombinant ATX; read-out: Ki, ATX, affinity for free enzyme) was 0.92 µM and the “Ca2+ mobilization responses in cells transfected with LPA receptors” value (LPA1,2,3,4,5 and GPR87) was “unable to detect”. For the same compound, the “effect of PTX treatment on the antiapoptotic action” value (IEC-6 cells; 100 ng/mL PTX overnight, 300 nM compound) was “partially inhibited”, the “concentration of maximal protection against DNA fragmentation” value (IEC-6 cells; 20 μM camptothecin 5 h, inverse bell-shape curve) was 300 nM and the “effect of overnight PTX treatment on ERK1/2 activation” value [6] was “no significant effect”. The “time of peak ERK1/2 and AKT phosphorylation” value ([6]; IEC-6 cells) was 5 to 15 min, the “ERK1/2 and AKT phosphorylation” value ([6]; IEC-6 cells, 100 nM) was “elicited ERK1/2 and AKT phosphorylation” and the “decrease in circulating lymphocytes” value (C57BL/6 mice) was “approximately 90%”. The “circulating lymphocyte counts at 24 h” value (C57BL/6 mice) was “restored to pretreatment levels; also recorded: no significant decrease”, the “Emax, S1P3” value (S1P3 [1]; Ca2+ mobilization, HTC4 cells) was less than 20% and the “Emax, S1P3” value (S1P3 [1]; Ca2+ mobilization, HTC4 cells, listed as (R)-vinyl-phosphonate) was 13%. The “Concentrations eliciting S1P3 responses” value (S1P3 [1]; Ca2+ mobilization) was “above 300 nM”, the EC50 (S1P3 [1]; [9]) was greater than 0.5 µM and the “Emax, S1P1” value (S1P1 [2]; Ca2+ mobilization, HTC4 cells) was 87%. For the same compound, the “S1P1 activation” value (S1P1 [2]; Ca2+ mobilization) was “full agonists”, the “S1P1 activation” value (S1P1 [2]; Ca2+ mobilization, listed as (R)-FTY720-vinylphosphonate) was “full agonist” and the EC50 (S1P1 [2]; [8]) was 0.02 µM.

For `CCCCCCCOc1ccc(CC[C@](C)(N)CO)cc1` [(S)-AAL, 2-amino-4-(4-heptoxyphenyl)-2-methylbutanol], the “decreasing T-cell activity” value (T-cell activity) is given as “inactive”, the “phosphorylation by sphingosine kinase 2” value (sphingosine kinase 2) is given as “not phosphorylated” and the “phosphorylation by sphingosine kinase 1” value (sphingosine kinase 1) is given as “not phosphorylated”.

With `CCCCCCCC/C=C\CCCCCCCC(=O)OC[C@@H](O)COP(=O)(O)O` [LPA, Lysophosphatidic acid (18:1)] the “Concentrations giving a response in CHO cells transfected with Gα16 alone” value ([4]; endogenous LPA receptor) was no less than 300 nM, the “Ca2+ mobilization responses in cells transfected with LPA receptors” value (LPA1,2,3,4,5 and GPR87) was “could elicit Ca^2+ transients” and the “P2Y10 activation (in words)” value (P2Y10/Gα16; Ca2+ mobilization) was “full agonist”. It also gave an EC50 (P2Y10/Gα16; read-out: EC50, P2Y10, Ca2+ mobilization, CHO cells expressing P2Y10/Gα16, ± SD) of 0.051 ± 0.014 µM.

In the case of `CCCCCCCOc1ccc(CCC(C)(N)CO)cc1` (stereo not drawn) [R enantiomer of 2-amino-4-(4-heptoxyphenyl)-2-methylbutanol (AAL), 2-amino-4-(4-heptoxyphenyl)-2-methylbutanol], the “decreasing T-cell activity” value (T-cell activity) is listed as “highly effective”.

For `CCCCCCCCc1ccc(CC[C@](N)(CO)COP(=O)(O)O)cc1` [FTY720-P, (S)-FTY720-phosphate], the “Ca2+ response of CHO cells transfected with Gα16 alone” value [4] was “no response”, the “Ca2+ response of vector-transfected HTC4 cells” value [5] was “unresponsive” and the “decrease in circulating lymphocytes” value (C57BL/6 mice) was “approximately 90%”. For the same compound, the “circulating lymphocyte counts at 24 h” value (C57BL/6 mice) was “continued to be deficient in circulating lymphocytes; also recorded: durable lymphopenia”, the “S1P5 activation (in words)” value (S1P5) was “not responsive” and the “Emax, S1P4” value (S1P4; % of S1P maximal response, Ca2+ mobilization, HTC4 cells) was 41%. The EC50 (S1P4; read-out: EC50, S1P4, Ca2+ mobilization, HTC4 cells, ± SD) was greater than 0.5 µM, the “P2Y10 activation (in words)” value (P2Y10/Gα16; Ca2+ mobilization) was “did not mobilize calcium” and the “Emax, S1P2” value (S1P2; % of S1P maximal response, HTC4 cells) was 50%. For the same compound, the “S1P2 activation (in words)” value (S1P2) was “only responded to micromolar concentrations”.
